The first experiment has as its system genotype A, "Long" strain RSV. As to the kind of experiment: RSV-A assay (CPE protection in Hep-2 cells, ATPlite readout). The format is cell-based, Human respiratory syncytial virus (HRSV). The conditions noted are these: RSV-A Long strain, MOI 0.1, CPE protection, read-out: Human RSV-A (“Long”) EC50. The source says:
Hep-2 cells, (originally derived from tumors grown in irradiated-cortisonised weanling rats that had been injected with epidermoid carcinoma tissue from the larynx of a person, but later found to be indistinguishable from HeLa cells by PCR DNA analysis), were used for the culturing of genotype A, “Long” strain RSV. Flasks were inoculated with RSV and viral stocks were collected once cytopathic effect (CPE) was greater than 90%. Viral stocks in 25% sucrose media were snap frozen using liquid nitrogen to increase viral stability. Viral stock titers were quantified by tissue culture infectious dose 50% (TCID50) using 8,000 cells per well and 3-fold viral dilutions across a 96-well plate, cultured for 4 days. Viral stock titers were also quantified by a plaque forming unit assay, as described elsewhere.
Following extensive parameter testing, the final assay is run as follows: Hep-2 cells are seeded into the inner 60 wells of a 96-well plate at 8,000 cells per well in a volume of 50 μL using Growth Media (DMEM without phenol red, 1% L-Glut, 1% Penn/Strep, 1% nonessential amino acids, 10% heat-inactivated FBS). 2-fold serial dilutions of control and test compounds are added to the wells in duplicate in a total volume of 25 μL. Viral stock is then added to the wells at a multiplicity of infection (MOI) of 0.1 in a volume of 25 μL, bringing the total volume of each well to 100 μL. The MOI is calculated using the PFU/mL, or TCID50 if unavailable. Each 96-well plate has a control column of 6 wells with cells and virus but no compound (negative control, max CPE), a column with cells but no compound or virus (positive control, minimum CPE), and a column with no cells or virus or compound (background plate/reagent control). The control wells with cells but no virus are given an additional 25 μL of growth media containing an equal quantity of sucrose as those wells receiving the viral stock in order to keep consistent in media and volume conditions. The outer wells of the plate are filled with 125 μL of moat media (DMEM, 1% Penn/Strep) to act as a thermal and evaporative moat around the test wells. Following a 5-day incubation period, the plates are read using ATPlite (50 uL added per well), which quantifies the amount of ATP (a measure of cell health) present in each well. Assay plates are read using the Envision luminometer. […] EC50 ranges are as follows: A<0.2 μM; B>0.2 μM.
As to `COc1cc(C(=O)NC[C@@](O)(c2cc3c(c(-c4ccc(F)c(Br)c4F)n2)OC[C@]3(C)C(N)=O)C(F)(F)F)cc2cn(C3CC3)nc12` [Example 1220], the EC50 is less than 200 nM.

Still in this experiment, the particulars now being: human respiratory syncytial virus, RSV-A Long strain, MOI 0.1, CPE protection, read-out: Human RSV-A (“Long”) EC50.
For the compound `COc1cc(C(=O)NC[C@](O)(c2cc3c(c(-c4cc(F)ccc4F)n2)OC[C@]3(C)C(N)=O)C2CC2)cc2cn(C3CC3)nc12` [Example 1282], the EC50 was less than 200 nM.
In the case of `COc1cc(C(=O)NC[C@](O)(c2cc3c(c(-c4ccc(F)cc4)n2)OC[C@]3(C)C(=O)NCCC(C)(C)O)C(F)(F)F)cc2cn(C3CC3)nc12` [Example 1175], the EC50 is less than 200 nM.
For `COc1cc(C(=O)NC[C@](O)(c2cc3c(c(-c4ccc(F)c(Cl)c4)n2)OC[C@]3(C)C(N)=O)C(F)(F)F)cn2nc(C3CC3)cc12` [Example 880], the EC50 was greater than 200 nM.
Turning to `COc1cc(C(=O)NC[C@@](O)(c2cc3c(c(-c4cc(Br)c(F)cc4F)n2)OC[C@]3(C)C(N)=O)C(F)(F)F)cc2cn(C3CC3)nc12` [Example 1222], the EC50 was less than 200 nM.
Turning to `COc1cc(C(=O)NC[C@](O)(c2cc3c(c(-c4ccc5c(c4)OC(F)(F)O5)n2)OC[C@]3(C)C(N)=O)C2CC2)cc2cc(C(F)F)nnc12` [Example 1210], the EC50 was less than 200 nM.
Turning to `COc1cc(C(=O)NC[C@](O)(c2cc3c(c(N4CCC(F)(F)CC4)n2)OC[C@]3(C)C(N)=O)C(F)(F)F)cc2cn(C3CC3)nc12` [Example 1270], the EC50 was less than 200 nM.
Regarding `COc1ccc(-c2nc([C@@](O)(CNC(=O)c3cc(OC)c4nn(C5CC5)cc4c3)C(F)(F)F)cc3c2OC[C@]3(C)C(N)=O)cc1OC` [Example 906], the EC50 is less than 200 nM.
`COc1cc(C(=O)NC[C@](O)(c2cc3c(c(-c4ccc(F)cc4)n2)OC[C@]3(C)C(=O)NC2COC2)C(F)(F)F)cc2cn(C3CC3)nc12` [Example 1174]: the EC50 is less than 200 nM.
Regarding `COc1cc(C(=O)NC[C@](O)(c2cc3c(c(-c4ccc(Cl)cc4Cl)n2)OC[C@]3(C)C(N)=O)C2CC2)cc2cn(C3CC3)nc12` [Example 1279], the EC50 was less than 200 nM.
For `COc1cc(C(=O)NC[C@](O)(c2cc3c(c(-c4cc(Cl)c(F)cc4F)n2)OC[C@]3(C)C(=O)NC2(C)CC2)C(F)(F)F)cc2cn(C3CC3)nc12` [Example 1205], the EC50 is less than 200 nM.
Consider `C[C@]1(C(N)=O)COc2c1cc([C@@](O)(CNC(=O)c1cc(OC3CC3)c3nn(C(F)F)cc3c1)C1CC1)nc2-c1cc(Cl)ccc1F` [Example 1199], for which the EC50 is less than 200 nM.

The experiment is the same for the next values; noted with them: human respiratory syncytial virus, genotype A “Long” strain RSV, MOI 0.1, CPE protection, read-out: Human RSV-A (“Long”).
Regarding `C[C@]1(C(N)=O)COc2c1cc([C@@](O)(CNC(=O)c1cccc3cc[nH]c13)C(F)(F)F)nc2-c1ccc(F)cc1` [Example 366], the EC50 is less than 200 nM.
Still for that read-out and setting: for `C[C@]1(C(N)=O)COc2c1cc([C@@](O)(CNC(=O)c1ccc3ccnn3c1)C(F)(F)F)nc2-c1ccc(F)cc1` [Example 418] the value was less than 200 nM; for `COc1cc(C(=O)NC[C@](O)(c2cc3c(c(-c4ccc(F)cc4)n2)OC[C@@]3(CF)C(N)=O)C(F)(F)F)ccc1OC1CC1` [Example 298], greater than 200 nM; for `CC[C@@]1(C(N)=O)COc2c1cc([C@@](O)(CNC(=O)c1cc(OC)c3nc(C)c(Cl)cc3c1)C(F)(F)F)nc2-c1ccc(F)cc1` [Example 247], greater than 200 nM.
Regarding `C[C@]1(C(N)=O)COc2c1cc([C@@](O)(CNC(=O)c1c[nH]c3cc(Cl)ccc13)C(F)(F)F)nc2-c1ccc(F)cc1` [Example 345], the EC50 was greater than 200 nM.
Same read-out and setting: for `C[C@]1(C(N)=O)COc2c1cc([C@@](O)(CNC(=O)c1ccc3nc(NCCO)sc3c1)C(F)(F)F)nc2-c1ccc(F)cc1` [Example 162] the value was greater than 200 nM.
`C[C@]1(C(N)=O)COc2c1cc([C@@](O)(CNC(=O)c1cn(-c3ccccc3)nc1-c1ccccc1)C(F)(F)F)nc2-c1ccc(F)cc1` [Example 443]: the EC50 was greater than 200 nM.
For the compound `C[C@]1(C(N)=O)COc2c1cc([C@@](O)(CNC(=O)c1cnc3[nH]ccc3c1)C(F)(F)F)nc2-c1ccc(F)cc1` [Example 380], the EC50 is less than 200 nM.
Still for that read-out and setting: then `COc1cc(C(=O)NC[C@](O)(c2cc3c(c(-c4ccc(F)cc4)n2)OC[C@]3(CF)C(N)=O)C(F)(F)F)ccc1OC1CC1` [Example 299], with less than 200 nM.
`C[C@]1(C(N)=O)COc2c1cc([C@@](O)(CNC(=O)c1cccc3[nH]ccc13)C(F)(F)F)nc2-c1ccc(F)cc1` [Example 415]: the EC50 was greater than 200 nM.
Turning to `COc1cccc(-c2nn(-c3ccccc3)cc2C(=O)NC[C@](O)(c2cc3c(c(-c4ccc(F)cc4)n2)OC[C@]3(C)C(N)=O)C(F)(F)F)c1` [Example 447], the EC50 is greater than 200 nM.
With `Cc1cnc2c(Nc3ccc(C(C)(C)C)nn3)cc(C(=O)NC[C@](O)(c3cc4c(c(-c5ccc(F)cc5)n3)OC[C@]4(C)C(N)=O)C(F)(F)F)cc2c1` [Example 118], the EC50 is less than 200 nM.
With `C[C@]1(C(N)=O)COc2c1cc([C@@](O)(CNC(=O)c1cc(Br)c3nc(N)oc3c1)C(F)(F)F)nc2-c1ccc(F)cc1` [Example 203], the EC50 was less than 200 nM.
As for `Cn1c(C(=O)NC[C@](O)(c2cc3c(c(-c4ccc(F)cc4)n2)OC[C@]3(C)C(N)=O)C(F)(F)F)cc2ccccc21` [Example 401], the EC50 was greater than 200 nM.
As for `CC[C@]1(C(N)=O)COc2c1cc([C@@](O)(CNC(=O)c1ccc(OC[C@@H](C)O)c(OC3CC3)c1)C(F)(F)F)nc2-c1ccc(F)cc1` [Example 242], the EC50 was less than 200 nM.
Turning to `CC[C@]1(C(N)=O)COc2c1cc([C@@](O)(CNC(=O)c1cc(OC)c3ncccc3c1)C(F)(F)F)nc2-c1ccc(F)cc1` [Example 237], the EC50 is less than 200 nM.
`CC[C@@]1(C(N)=O)COc2c1cc([C@@](O)(CNC(=O)c1cc(OC)c3ncccc3c1)C(F)(F)F)nc2-c1ccc(F)cc1` [Example 246]: the EC50 is greater than 200 nM.
With `CC[C@@]1(C(N)=O)COc2c1cc([C@@](O)(CNC(=O)c1cc(OC)c3nn(C4CC4)cc3c1)C(F)(F)F)nc2-c1ccc(F)cc1` [Example 463], the EC50 was less than 200 nM.
On the same count and under the same terms, then `C[C@]1(C(N)=O)COc2c1cc([C@@](O)(CNC(=O)c1ccc(C(F)F)nc1)C(F)(F)F)nc2-c1ccc(F)cc1` [Example 408], with greater than 200 nM; and `Cc1cccn2cc(C(=O)NC[C@](O)(c3cc4c(c(-c5ccc(F)cc5)n3)OC[C@]4(C)C(N)=O)C(F)(F)F)nc12` [Example 806], with greater than 200 nM; and `Cc1c(C(=O)NC[C@](O)(c2cc3c(c(-c4ccc(F)cc4)n2)OC[C@]3(C)C(N)=O)C(F)(F)F)cnn1-c1ccccc1` [Example 458], with less than 200 nM.
For the compound `C[C@]1(C(N)=O)COc2c1cc([C@@](O)(CNC(=O)c1cn(-c3ccccc3)nc1C(F)(F)F)C(F)(F)F)nc2-c1ccc(F)cc1` [Example 457], the EC50 was greater than 200 nM.
Turning to `C[C@]1(C(N)=O)COc2c1cc([C@@](O)(CNC(=O)c1ccc3nc(C4CC4)sc3c1)C(F)(F)F)nc2-c1ccc(F)c(Cl)c1` [Example 18], the EC50 is less than 200 nM.
Turning to `COc1cc(C(=O)NC[C@](O)(c2cc3c(c(-c4ccc(F)cc4)n2)OC[C@@]3(CF)C(N)=O)C(F)(F)F)cc2cccnc12` [Example 282], the EC50 is greater than 200 nM.
With `Cc1cnc2c(NC(=O)OC3CC3)cc(C(=O)NC[C@](O)(c3cc4c(c(-c5ccc(F)cc5)n3)OC[C@]4(C)C(N)=O)C(F)(F)F)cc2c1` [Example 216], the EC50 was less than 200 nM.
As for `C[C@@H](O)COc1ccc(C(=O)NC[C@](O)(c2cc3c(c(-c4ccc(F)cc4)n2)OC[C@@]3(CF)C(N)=O)C(F)(F)F)cc1OC1CC1` [Example 293], the EC50 is greater than 200 nM.
